Test results from the Kinase Knowledgebase extract (Sharma et al. 2016).

Target: EGFR (human) (UniProt P00533)
Details: A431

Chain of EGFR (human) (P00533 whole entry, looked up): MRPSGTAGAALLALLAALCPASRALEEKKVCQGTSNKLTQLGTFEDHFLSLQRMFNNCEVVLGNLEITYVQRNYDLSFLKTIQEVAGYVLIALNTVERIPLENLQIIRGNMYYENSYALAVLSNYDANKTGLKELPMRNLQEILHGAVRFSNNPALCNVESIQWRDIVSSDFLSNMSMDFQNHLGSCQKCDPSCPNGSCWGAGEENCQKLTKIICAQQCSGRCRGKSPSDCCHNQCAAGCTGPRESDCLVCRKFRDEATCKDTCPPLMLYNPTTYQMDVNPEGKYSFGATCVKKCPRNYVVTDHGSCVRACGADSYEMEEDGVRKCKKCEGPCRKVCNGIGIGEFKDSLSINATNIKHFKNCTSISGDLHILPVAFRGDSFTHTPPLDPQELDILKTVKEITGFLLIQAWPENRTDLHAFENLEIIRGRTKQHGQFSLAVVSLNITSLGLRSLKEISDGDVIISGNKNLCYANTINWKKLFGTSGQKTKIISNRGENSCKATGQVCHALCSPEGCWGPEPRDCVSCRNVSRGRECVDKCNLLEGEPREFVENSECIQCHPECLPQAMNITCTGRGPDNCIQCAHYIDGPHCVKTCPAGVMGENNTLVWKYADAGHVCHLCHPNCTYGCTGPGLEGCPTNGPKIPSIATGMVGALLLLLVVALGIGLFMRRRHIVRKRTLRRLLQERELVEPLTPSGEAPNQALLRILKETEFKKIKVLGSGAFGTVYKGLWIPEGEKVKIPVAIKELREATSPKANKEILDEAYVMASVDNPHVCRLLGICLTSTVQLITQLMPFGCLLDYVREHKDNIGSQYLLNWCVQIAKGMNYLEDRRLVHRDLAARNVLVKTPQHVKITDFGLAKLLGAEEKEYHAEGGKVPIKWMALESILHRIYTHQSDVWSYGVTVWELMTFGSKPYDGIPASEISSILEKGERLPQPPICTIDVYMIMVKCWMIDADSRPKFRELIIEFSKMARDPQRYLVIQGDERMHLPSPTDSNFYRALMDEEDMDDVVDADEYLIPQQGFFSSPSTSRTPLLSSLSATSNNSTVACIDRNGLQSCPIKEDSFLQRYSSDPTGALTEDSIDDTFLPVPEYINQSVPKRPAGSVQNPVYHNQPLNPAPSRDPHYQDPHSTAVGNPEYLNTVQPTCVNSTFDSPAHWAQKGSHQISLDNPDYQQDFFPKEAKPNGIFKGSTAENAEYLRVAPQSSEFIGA

For `CCOc1cc(/C=C(\C#N)C(N)=O)cc(CSc2ccccc2)c1O`, which IC50 is on record?
The IC50 was 370 nM.

Which IC50 does the source give for `COc1cc(/C=C(\C#N)C(N)=O)cc(CSc2ccccc2)c1O` here?
The IC50 was 530 nM.

With `N#C/C(=C\c1cc(Cc2ccccc2)c(O)c(Cc2ccccc2)c1)C(N)=O` as the compound, how does the IC50 read?
Its IC50 is 600 nM.

How did the IC50 turn out when `CC(C)c1cc(CC(C#N)C(N)=O)cc(C(C)C)c1O` (stereo unspecified) was run?
The IC50 was 9800 nM.

How did the IC50 turn out when `CCOc1cc(/C=C(\C#N)C(N)=O)cc(CSc2cccc(OC)c2)c1O` was run?
Its IC50 is 4000 nM.

With `N#C/C(=C\c1cc(CSc2ccccc2)c(O)c(OCc2ccccc2)c1)C(N)=O` as the compound, how does the IC50 read?
The IC50 was 750 nM.

For `CCOc1cc(/C=C(\C#N)C(N)=O)cc(CSc2ccc(C)cc2)c1O`, which IC50 is on record?
Its IC50 is 2200 nM.

For `CC(C)c1cc(/C=C(\C#N)C(N)=O)cc(C(C)C)c1O`, which IC50 is on record?
The IC50 was 1100 nM.

`CCOc1cc(/C=C(\C#N)C(N)=O)cc(CSc2c(F)c(F)c(F)c(F)c2F)c1O` was tested. Which IC50 did it give?
Its IC50 is 3000 nM.

`CC(C)(C)c1cc(/C=C(\C#N)C(N)=O)cc(C(C)(C)C)c1O` was tested. Which IC50 did it give?
Its IC50 is 46000 nM.

How did the IC50 turn out when `N#C/C(=C\c1cc(-c2ccccc2)c(O)c(-c2ccccc2)c1)C(N)=O` was run?
Its IC50 is 370 nM.

For `CCOc1cc(/C=C(\C#N)C(N)=O)cc(CSc2ccc(O)cc2)c1O`, which IC50 is on record?
The IC50 was 2800 nM.

Same assay, conditions: A431; concentration not given here

`CCOc1cc(/C=C(\C#N)C(N)=O)cc(COc2ccccc2)c1O` was tested. Which inhibition did it give?
The inhibition was 18%.

For `CCOc1cc(/C=C(\C#N)C(N)=O)cc(CSc2ccccc2)c1OC(=O)c1ccccc1`, which inhibition is on record?
Its inhibition is 20%.

For `CCOc1cc(/C=C(\C#N)C(N)=O)cc(CSc2ccc(Br)cc2)c1O`, which inhibition is on record?
Its inhibition is 0%.

`CCOc1cc(/C=C(\C#N)C(N)=O)cc(CSc2cccc(Cl)c2)c1O` was tested. Which inhibition did it give?
The inhibition was 0%.

How did the inhibition turn out when `CCOc1cc(/C=C(\C#N)C(N)=O)cc(CSc2ccccc2OC)c1O` was run?
Its inhibition is 0%.

With `CCOc1cc(/C=C(\C#N)C(N)=O)cc(CSc2cccc(OC)c2)c1O` as the compound, how does the inhibition read?
The inhibition was 17%.

`CCOc1cc(/C=C(\C#N)C(N)=O)cc(CSc2ccccc2)c1OC` was tested. Which inhibition did it give?
Its inhibition is 18%.

Which inhibition does the source give for `CCOc1cc(/C=C(\C#N)C(N)=O)cc(CSc2ccc(C)cc2)c1O` here?
Its inhibition is 47%.

With `CCOc1cc(/C=C(\C#N)C(N)=O)cc(CSc2ccc([N+](=O)[O-])cc2)c1O` as the compound, how does the inhibition read?
Its inhibition is 0%.

How did the inhibition turn out when `CCOc1cc(/C=C(\C#N)C(N)=O)cc(CSc2ccc(C(C)(C)C)cc2)c1O` was run?
The inhibition was 0%.

How did the inhibition turn out when `CCOc1cc(/C=C(\C#N)C(N)=O)cc(CSc2ccccc2)c1OC(C)=O` was run?
The inhibition was 24%.

How did the inhibition turn out when `CCOc1cc(/C=C(\C#N)C(N)=O)cc(CSc2c(F)c(F)c(F)c(F)c2F)c1O` was run?
The inhibition was 41%.

With `CCOc1cc(/C=C(\C#N)C(N)=O)cc(CSc2ccc(Cl)c(Cl)c2)c1O` as the compound, how does the inhibition read?
Its inhibition is 0%.

`CCOc1cc(/C=C(\C#N)C(N)=O)cc(CSc2ccc(O)cc2)c1O` was tested. Which inhibition did it give?
The inhibition was 30%.
